Measured values as given in article PMC11310889, “Ribosomal translation of fluorinated non-canonical amino acids for de novo biologically active fluorinated macrocyclic peptides” (Chemical Science, 2024).

Tests used:
E. coli W3110 [1] = assay: Evaluation of R9-conjugated macrocyclic peptides against E. coli W3110 (survival, CFU); format: cell-based, Escherichia coli; settings: E. coli W3110 logarithmic-phase, 5 μM peptide, 15 min treatment (Fig. 4B)
Experimental: the samples were centrifuged at 1000 rpm for 10 min，and take pictures of the pellet after centrifugation. Then, the supernatant from each sample was absorbed into the 96-well plate to ensure that there could be no air bubbles in each hole. The absorbance of the supernatant at the wavelength of 545 nm was measured by microplate reader, and the percentage of hemolysis of each […]
Percentage of hemolysis = 100%OD-OD×
Evaluation of R9-conjugated macrocyclic peptides against Gram-negative pathogens Remove the previously preserved E. coli W3110 cells from the -80 °C refrigerator, scrape a little, inoculate it into 1 mL LB liquid medium, and culture overnight in 37 °C shaker. The strain was inoculated into fresh LB liquid medium according to the inoculation ratio of 1:100 and incubated at 37 ℃ until the OD600 reached about 0.47~0.53. First, 100 μL E. coli W3110 cells was taken, then centrifuged for 2 minutes at 13000 rpm, then the supernatant was absorbed and discarded, and then the cells were resuspended with 100 μL PBS solution, followed by 13000 rpm centrifugation for two minutes. Various fluorinated macrocyclic peptides conjugated with R9 were dissolved in DMSO and then diluted to the required concentration. […] Finally, the plate was scanned and counted. […]

E. coli W3110 [2] = assay: Scanning electron microscopy of cell morphology; format: cell-based, Escherichia coli; settings: E. coli W3110 logarithmic-phase, 4 h treatment at 2 μM and 5 μM (Fig. 5B, S11)
Experimental: Thaw the previously preserved E. coli W3110 cells from the -80 °C freezer. […]
Scanning electron microscopy
Thaw the previously preserved E. coli W3110 cells from the -80°C freezer. Scrape a small amount and inoculate it into 1 mL of LB liquid medium. Incubate overnight in a 37°C shaker. The next day, inoculate the strain into fresh LB liquid medium at a 1:100 ratio and incubate at 37°C until the OD600 reaches approximately 0.47 to 0.53. Take 500 μL of E. coli W3110 cells, centrifuge for 10 min at 4000 rpm, and discard the supernatant. Resuspend the cells in 500 μL of PBS, then centrifuge again at 4000 rpm for 10 min and discard the supernatant. Dissolve various macrocyclic peptides in DMSO and dilute to the required concentration. Resuspend the untreated group in 500 μL of PBS.
For the peptide treatment group, resuspend in 495 μL of ddH2O, add 5 μL of 0.2 mM or 0.5 mM peptides, mix well, and let react for 4 h.
After the treament, spot 4 μL of the sample on plates. Perform the first ten-fold dilution and mix, then continue with the second to fifth ten-fold dilutions. Incubate the plates inverted overnight in a 37°C incubator. Scan and count the colonies. For the remaining 492 μL, centrifuge at 6100g for 10 min, discard the supernatant, add 500 μL of ddH2O, and let it stand for 15 min. Centrifuge again at 6100g for 10 min, discard the supernatant, and add 500 μL of ddH2O containing 2.5% glutaraldehyde. Resuspend and fix the cells overnight at 4°C. Centrifuge at 6100g for 10 min, remove the supernatant, and wash twice with ddH2O, letting it stand for 15 min each time, followed by centrifugation at 6100g for 10 min. Discard the supernatant. Dehydrate the sample with ethanol at concentration gradients of 30%, 60%, and 90%, without resuspension, centrifuging at 6100g for […]
10 min and discarding the supernatant after each step. Finally, use 100% ethanol, rest for 15 min, centrifuge at 6100g for 10 min, discard the supernatant, and repeat with 100% ethanol, leaving about 10 μL. Then the critical point was dried and sprayed with gold, and the images were observed by […]
Prediction of binding sites between peptides and the BAM complex
Firstly, the fpocket algorithm was used, a rapid method for pocket prediction based on the three-dimensional structure of BAM complex (PDB ID: 5AYW). This method establishes a grid surrounding the protein, positioning alpha spheres on grid points devoid of spatial conflicts with protein atoms, subsequently utilizing a clustering algorithm to ascertain whether these regions constitute potential binding pockets. Alpha spheres were designated with radii ranging from 3.4Å to 6.2Å, with a prerequisite of at least 15 alpha spheres for a region to be considered a pocket. […]
PepNN evaluated each amino acid for its potentiality as a peptide binding site. […]

Row | Substance | eradication of E. coli bacteria (E. coli W3110 [1]) | morphological changes by scanning electron microscopy (E. coli W3110 [2])
1 | Ac-(4-F-DPhe)IWHKSLT(4-F-DPhe)NYLHTCGS(Acp)RRRRRRRRR-NH2 (sidechain bridge or staple) [BAM-f2-R9, BAM-f2 conjugated with cell-penetrating peptide R9] | over 99.9% | severe damage in the cell shape and even lysis
2 | Ac-(4-F-DPhe)KHFIY(4-F-β-Phe)YRSPICGS(Acp)RRRRRRRRR-NH2 (sidechain bridge or staple) [BAM-β3-R9, BAM-β3 conjugated with cell-penetrating peptide R9] | over 99.9% | severe damage in the cell shape and even lysis
